From patent US20240173325A1, “METHODS FOR TREATING SPINAL MUSCULAR ATROPHY” (Genentech, Inc., priority 2022, published 2024)
Like-named read-outs stand apart in the source and are kept apart here.

Assays:
[1] = test system: FMO1 and FMO3, CYPs 1A1, 2J2, 3A4, and 3A7; details: cited from earlier work
[2] = test system: neonatal subject; assay: Clinical assessments of the neonatal subject (physical/neurologic exam, CHOP INTEND, HINE-2, Bayley-4, OrSAT, ultrasound); assay type: in vivo, human; details: for CHOP INTEND: highest possible score 64; for Oral-motor assessment (OrSAT): maximum score 7
Protocol: Following birth, the neonatal subject, approximately one week and again at approximately six weeks of age, was assessed using the Hammersmith Infant Neurological Exam (HINE), Bayley Scales of Infant and Toddler Development, 4th edition (“Bayley™-4), the Children's Hospital of” Philadelphia Infant Test of Neuromuscular Disorders (CHOP INTEND), the Oral and Swallowing Abilities Tool (OrSAT), respiratory inductance plethysmography (RIP), a complete physical examination, anthropometric measurements (including vital signs, length, weight, head circumference and chest circumference), nerve conduction testing (specifically compound muscle action potential (CMAP) and motor unit number estimation (MUNE)), an ultrasound of the brain and muscles, blood and urine collection for CBC, CMP, U/A, and risdiplam PK/PD. The CBC, CMP, and U/A could be repeated at six weeks if the neonatal subject had not initiated any SMN-directed therapies, if there was a clinical indication upon physical examination, or if the one-week labs had clinically significant abnormal results.
The maximum score for the HINE-2 is 26 points, with a higher score reflecting a higher function, respectively.
Bayley™-4 is a comprehensive assessment tool for determining developmental delays in high-risk neonatal subjects. See Bayley & Aylward (2019) Bayley Scales of Infant and Toddler Development (4th ed.) technical manual. Bloomington, MN: NCS Pearson. Bayley™-4 scores from an assessment of early childhood development. Specifically, Bayley™-4 tests developmental skills such as cognitive, language, and motor skills of the neonatal subject. The scores represent how well the neonatal subject performed in these areas as compared to a group of neonatal subjects in the same age range. The Bayley™-4 mean standard score is 100 and the standard deviation is 15.
In Table 6, “CHOP INTEND” refers to a test that provides information about how strong the neonatal subject's muscles are and how well the neonatal subject can control his/her muscles. During the CHOP INTEND examination, a health care provider measures 16 types of muscle movements, which include head control (keeping the head upright), elbow flexion and knee extension (bending the joints), arm and leg mobility, and handgrip. […] All of the CHOP INTEND scores add up to one total score, with the highest possible score for the CHOP INTEND test being 64. With a score of 50 at 6 weeks and a score of 55 at 18 weeks, the neonatal subject was considered to be normal.
“OrSAT” or “Oral and Swallowing Abilities Tool” is a tool specifically designed to record structured information on different aspects related to oral, swallowing and feeding abilities in patients with type 1 SMA. See Berti (2022) Arch. Dis. Child. archdischild-2022-323899. Specifically, OrSAT includes several questions, where the responses are graded using a scoring system: each item is scored as 0 or 1 depending if the patient is able or unable to perform a given activity. Since some items are age-dependent, the number of items and the maximal score increases with an increasing age. If the neonatal subject younger than 6 months of age who cannot be assessed on swallowing semisolids or solids, the maximum score is 7, whereas if the neonatal subject is between 6 and 9 months of age, who can be assessed on this criteria, the maximum score is 10. If the neonatal subject is 10 months of age or older and can be assessed for all food consistencies, including solids, the maximum total score is 12. See Berti (2021) J. Neuromuscul. Dis. 8(4):589-601.
Muscle ultrasound was performed using a 11-mHz-linear array transducer (60 mm width) in B-mode (GE Vivid E95; GE, Chicago, IL, USA) to evaluate for muscle fasciculation in the right and left biceps, the abductor digiti minimi muscle, the quadriceps, the transverse abdominal muscle, the gastrocnemius-soleus, the lumbar paraspinals and the tongue. Thickness of the quadriceps muscle was measured. […]

[3] = test system: rabbit fetuses; details: cited from earlier work
[4] = test system: SMN protein; assay: SMN protein levels in whole blood (Roche Elecsys immunoassay); assay type: in vivo, human
Protocol: Table 7A and Table 7B presents SMN protein levels in whole blood (measured in ng/mL) in the carrier and the subject as the fetal subject and the neonatal subject of this Example, and reference values are shown in Table 7C below. Table 7B is a continuation of Table 7A from 32.5 weeks gestation prior to administration of risdiplam to the carrier through 43 days post-delivery. SMN protein levels in the whole blood were performed using an immunoassay developed by Roche Diagnostics on the Elecsys® platform.

## Cc1cn2nc(-c3cc(=O)n4cc(N5CCNC6(CC6)C5)ccc4n3)cc(C)c2n1 [risdiplam, 7-(4,7-diazaspiro[2.5]octan-7-yl)-2-(2,8-dimethylimidazo[1,2-b]pyridazin-6-yl)-4H-pyrido[1,2-a]pyrimidin-4-one]
[1]
  Activity of metabolites: inactive
  Metabolizing enzymes: primarily metabolized by flavin monooxygenase 1 and 3 (FMO1 and FMO3) and also by CYPs 1A1, 2J2, 3A4, and 3A7
[2]; 1 week
  Ultrasound studies Neurosonogram Muscle: normal
  CHOP INTEND: 46
  Oral-motor assessment (OrSAT): 7
[2]; 1 week to 18 weeks
  General Physical Exam: Heart murmur (VSD)
  Neurologic Exam: Normal, age-appropriate tone, posture,
[2]; 2 weeks to 2 months
  Mental status: Somnolent and fussy
[2]; 6 weeks
  Ultrasound studies Neurosonogram Muscle: normal
  CHOP INTEND: 50
  Oral-motor assessment (OrSAT): 7
[2]; 18 weeks
  Bayley-4 Adaptive Behavior: Behavior: 89
  Bayley-4 Cognitive: Cognitive: 95
  Bayley-4 Communication: Communication: 103
  Bayley-4 Social: Social: 95
  Ultrasound studies Neurosonogram Muscle: normal
  Oral-motor assessment (OrSAT): 7
[2]; 18 weeks, maximum score 26
  HINE-2: 8
[2]; 18 weeks, mean standard score 100, SD 15
  Bayley-4 Motor: Motor: 101
[2]; 1 minute
  APGAR score: APGAR scores: 7
[2]; 5 minutes
  APGAR score: minute), 8 (5 minutes)
[2]; after 2 months
  Growth (weight gain): Normal after
  Mental status: Normal after
[2]; birth to 1 week
  General Physical Exam: Respiratory distress
  Mental status: Normal
  Neurologic Exam: Normal, age- appropriate
[2]; birth to 1 week (DOL2)
  Ultrasound studies Neurosonogram Muscle: normal DOL2
[3]; at about 12 mg/kg/day
  Findings in rabbit fetuses: hydrocephalus, an abnormally small gall bladder, and lung variations
[3]; dams treated at about 1 mg/kg/day to about 12 mg/kg/day
  Findings in rabbit fetuses: reduced weight gain and cranium or brain variations
[4]; at d0, versus reference study (FIG. 2)
  SMN protein level in whole blood relative to reference amounts: about two
[4]; carrier, 32.5 WG (pre-risdiplam)
  SMN protein level in whole blood: 7.7 ng/mL
[4]; carrier, 36 WG
  SMN protein level in whole blood: 6.3 ng/mL
[4]; carrier, 38 WG
  SMN protein level in whole blood: 6.0 ng/mL
[4]; carrier, birth 38.5 WG
  SMN protein level in whole blood: 4.0 ng/mL
[4]; carrier, d 20 post birth
  SMN protein level in whole blood: 5.0 ng/mL
[4]; carrier, d 29 post birth
  SMN protein level in whole blood: 5.1 ng/mL
[4]; carrier, d 43 post birth
  SMN protein level in whole blood: 4.6 ng/mL
[4]; carrier, from prenatal treatment until delivery
  Decline of SMN protein level: 48%
[4]; carrier, postpartum period
  Increase of SMN protein level: 15-28%
[4]; neonatal subject, at d43 following drug initiation on d8
  Increase of SMN protein level: 36%
[4]; neonatal subject, birth 38.5 WG (cord)
  SMN protein level in whole blood: 9.4 ng/mL
[4]; neonatal subject, d 8, no drug since birth
  SMN protein level in whole blood: 4.5 ng/mL
[4]; neonatal subject, d 43, oral 0.15 mg/kg/day from d8
  SMN protein level in whole blood: 6.1 ng/mL
